# Reference: ChEMBL document CHEMBL1649421, “New drug-like hydroxyphenylnaphthol steroidomimetics as potent and selective 17β-hydroxysteroid dehydrogenase type 1 inhibitors for the treatment of estrogen-dependent diseases” (J Med Chem, 2011)
# Assays:
# [1] = molecular target: T1, 17-beta-hydroxysteroid dehydrogenase type 1 (Homo sapiens) (UniProt P14061); experiment: Inhibition of [3H]E1 binding to human recombinant 17beta-HSD1 expressed in baculovirus-infected Sf9 cells at 1 uM after 10 mins by fluid scintillation counting
# T1 sequence (whole entry): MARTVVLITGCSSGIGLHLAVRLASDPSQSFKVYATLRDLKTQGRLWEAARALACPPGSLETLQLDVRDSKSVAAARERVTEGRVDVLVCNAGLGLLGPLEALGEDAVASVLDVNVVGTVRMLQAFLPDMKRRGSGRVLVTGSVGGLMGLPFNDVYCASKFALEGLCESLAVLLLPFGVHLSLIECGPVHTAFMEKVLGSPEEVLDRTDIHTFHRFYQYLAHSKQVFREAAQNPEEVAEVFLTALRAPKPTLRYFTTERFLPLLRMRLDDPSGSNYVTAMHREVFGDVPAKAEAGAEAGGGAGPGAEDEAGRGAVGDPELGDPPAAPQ
# [2] = molecular target: T2, 17-beta-hydroxysteroid dehydrogenase type 2 (Homo sapiens) (UniProt P37059); experiment: Inhibition of [3H]E2 binding to human recombinant 17beta-HSD2 expressed in baculovirus-infected Sf9 cells at 1 uM after 10 mins by fluid scintillation counting
# T2 sequence (whole entry): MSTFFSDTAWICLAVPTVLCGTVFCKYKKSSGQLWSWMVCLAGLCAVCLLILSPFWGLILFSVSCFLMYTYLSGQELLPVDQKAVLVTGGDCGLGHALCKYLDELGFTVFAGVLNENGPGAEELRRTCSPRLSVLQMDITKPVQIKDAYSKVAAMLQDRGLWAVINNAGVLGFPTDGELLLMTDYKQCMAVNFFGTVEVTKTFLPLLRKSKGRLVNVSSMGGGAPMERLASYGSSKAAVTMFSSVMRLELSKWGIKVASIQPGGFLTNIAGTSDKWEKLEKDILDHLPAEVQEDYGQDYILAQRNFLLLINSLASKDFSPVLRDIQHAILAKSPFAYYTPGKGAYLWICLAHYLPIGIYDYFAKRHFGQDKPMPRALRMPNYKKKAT
# [3] = molecular target: T2, 17-beta-hydroxysteroid dehydrogenase type 2 (Homo sapiens); experiment: Inhibition of [3H]E2 binding to human recombinant 17beta-HSD2 expressed in baculovirus-infected Sf9 cells at 100 nM after 10 mins by fluid scintillation counting
# [4] = molecular target: T1, 17-beta-hydroxysteroid dehydrogenase type 1 (Homo sapiens); experiment: Inhibition of [3H]E1 binding to human recombinant 17beta-HSD1 expressed in baculovirus-infected Sf9 cells at 100 nM after 10 mins by fluid scintillation counting
# [5] = molecular target: T1, 17-beta-hydroxysteroid dehydrogenase type 1 (Homo sapiens); experiment: Inhibition of [3H]E1 binding to human placental 17beta-HSD1 at 1 uM after 10 mins by fluid scintillation counting
# [6] = molecular target: T1, 17-beta-hydroxysteroid dehydrogenase type 1 (Homo sapiens); experiment: Inhibition of [3H]E1 binding to human placental 17beta-HSD1 at 100 nM after 10 mins by fluid scintillation counting
# [7] = molecular target: T2, 17-beta-hydroxysteroid dehydrogenase type 2 (Homo sapiens); experiment: Inhibition of [3H]E2 binding to human placental 17beta-HSD2 at 1 uM after 10 mins by fluid scintillation counting
# Homo sapiens = organism: Homo sapiens; experiment: Selectivity ratio of IC50 for human placental 17beta-HSD2 to IC50 for human placental 17beta-HSD1
# [8] = molecular target: T3, Estrogen receptor (Homo sapiens) (UniProt P03372); experiment: Displacement of [3H]E2 from human recombinant ERalpha by liquid scintillation counting relative to estradiol
# T3 sequence (whole entry): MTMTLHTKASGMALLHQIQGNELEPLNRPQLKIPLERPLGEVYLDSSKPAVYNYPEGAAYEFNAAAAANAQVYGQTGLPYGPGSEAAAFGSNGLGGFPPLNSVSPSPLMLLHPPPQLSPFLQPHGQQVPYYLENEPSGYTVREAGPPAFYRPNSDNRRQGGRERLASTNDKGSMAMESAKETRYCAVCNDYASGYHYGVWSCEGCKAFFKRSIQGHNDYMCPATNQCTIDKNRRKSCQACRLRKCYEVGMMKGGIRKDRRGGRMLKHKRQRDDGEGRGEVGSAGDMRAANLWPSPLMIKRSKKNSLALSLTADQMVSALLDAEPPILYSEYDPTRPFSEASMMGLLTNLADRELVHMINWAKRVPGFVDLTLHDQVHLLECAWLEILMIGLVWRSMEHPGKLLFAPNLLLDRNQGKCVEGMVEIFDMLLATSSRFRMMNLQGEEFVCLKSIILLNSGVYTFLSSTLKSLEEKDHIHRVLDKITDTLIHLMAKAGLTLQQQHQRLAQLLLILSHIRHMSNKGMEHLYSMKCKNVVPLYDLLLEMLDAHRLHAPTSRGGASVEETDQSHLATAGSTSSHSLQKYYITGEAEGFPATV
# [9] = molecular target: T4, 17-beta-hydroxysteroid dehydrogenase type 1 (Homo sapiens, UniProt P14061); experiment: Displacement of [3H]E1 from 17beta-HSD1 in human T47D cells after 10 mins by fluid scintillation counting; type: cell-based
# T4 sequence (P14061 whole entry): T1 sequence (whole entry)
# [10] = molecular target: Estrogen receptor beta (Homo sapiens) (UniProt Q92731); experiment: Displacement of [3H]E2 from human recombinant ERbeta by liquid scintillation counting relative to estradiol
# [11] = molecular target: T4, 17-beta-hydroxysteroid dehydrogenase type 1; experiment: Displacement of [3H]E1 from human placental 17beta-HSD1 after 10 mins by fluid scintillation counting
# Chain of Estrogen receptor beta (Homo sapiens) (Q92731 whole entry): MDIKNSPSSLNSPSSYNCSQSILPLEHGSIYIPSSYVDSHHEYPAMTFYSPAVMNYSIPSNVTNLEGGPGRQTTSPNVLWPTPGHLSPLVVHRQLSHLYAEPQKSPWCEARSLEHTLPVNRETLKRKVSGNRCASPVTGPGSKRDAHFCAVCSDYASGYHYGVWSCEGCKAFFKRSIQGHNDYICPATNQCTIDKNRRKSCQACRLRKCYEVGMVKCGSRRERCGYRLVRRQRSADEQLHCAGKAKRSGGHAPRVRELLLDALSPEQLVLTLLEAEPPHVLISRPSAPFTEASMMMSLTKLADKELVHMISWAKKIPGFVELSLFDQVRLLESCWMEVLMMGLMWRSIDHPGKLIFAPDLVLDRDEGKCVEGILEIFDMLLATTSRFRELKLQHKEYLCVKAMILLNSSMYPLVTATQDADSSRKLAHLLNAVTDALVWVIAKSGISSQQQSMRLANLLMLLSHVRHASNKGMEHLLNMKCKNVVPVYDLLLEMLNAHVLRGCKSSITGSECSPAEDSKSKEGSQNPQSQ
smiles,measurement,setting,value
Oc1cccc(-c2ccc3c(-c4ccc(N5CCOCC5)cc4)c(O)ccc3c2)c1,inhibition,[1],65%
same,inhibition,[2],32%
same,inhibition,[3],12%
same,inhibition,[4],32%
COc1ncc(-c2c(O)ccc3cc(-c4cccc(O)c4)ccc23)c(OC)n1,inhibition,[5],79%
same,inhibition,[6],31%
same,inhibition,[7],9%
O=C(O)c1cccc(-c2c(O)ccc3cc(-c4cccc(O)c4)ccc23)c1,inhibition,[1],80%
same,inhibition,[2],34%
same,inhibition,[3],< 10%
same,inhibition,[4],45%
O=C(O)CCC(=O)Nc1cccc(-c2c(O)ccc3cc(-c4cccc(O)c4)ccc23)c1,inhibition,[1],62%
same,inhibition,[2],68%
same,inhibition,[3],24%
same,inhibition,[4],< 10%
Oc1cccc(-c2ccc3c(-c4ccc5[nH]ccc5c4)c(O)ccc3c2)c1,inhibition,[5],87%
same,inhibition,[6],50%
same,inhibition,[7],19%
CC(=O)Nc1cccc(-c2c(O)ccc3cc(-c4cccc(O)c4)ccc23)c1,inhibition,[1],82%
same,inhibition,[2],64%
same,inhibition,[3],24%
same,inhibition,[4],35%
Oc1ccc(-c2ccc3c(-c4cncnc4)c(O)ccc3c2)cc1,inhibition,[5],35%
same,inhibition,[7],22%
Oc1ccc2cc(-c3ccccc3)ccc2c1-c1cncnc1,inhibition,[5],22%
same,inhibition,[7],< 10%
Oc1cccc(-c2ccc3c(-c4cncnc4)cccc3c2)c1,inhibition,[5],< 10%
same,inhibition,[7],< 10%
Cn1cc(-c2c(O)ccc3cc(-c4cccc(O)c4)ccc23)cn1,inhibition,[5],71%
same,inhibition,[6],28%
same,inhibition,[7],24%
Oc1cccc(-c2ccc3c(-c4cncnc4)c(O)ccc3c2)c1,inhibition,[5],41%
same,inhibition,[6],< 10%
same,inhibition,[7],85%
Oc1cccc(-c2ccc3cc(O)ccc3c2)c1,Ratio IC50,Homo sapiens,49
same,RBA,[8],0.1%
same,IC50,[9],229 nM
same,RBA,[10],0.1%
Oc1ccccc1-c1ccc2c(-c3cncnc3)c(O)ccc2c1,inhibition,[5],< 10%
same,inhibition,[7],< 10%
Oc1cccc(-c2ccc3c(-c4ccoc4)c(O)ccc3c2)c1,inhibition,[1],89%
same,Ratio IC50,Homo sapiens,8
same,inhibition,[2],92%
same,RBA,[8],0.01%
same,inhibition,[3],61%
same,IC50,[11],70 nM
same,inhibition,[4],83%
same,RBA,[10],0.01%
Oc1cccc(-c2ccc3c(-c4ccncc4)c(O)ccc3c2)c1,inhibition,[1],86%
same,inhibition,[2],49%
same,RBA,[8],0.01%
same,inhibition,[3],12%
same,IC50,[11],64 nM
same,inhibition,[4],74%
same,RBA,[10],< 0.01%
Oc1ccccc1-c1ccc2c(-c3cncnc3)cccc2c1,inhibition,[5],< 10%
same,inhibition,[7],< 10%
